These results are taken from article PMC8322648, “Brevibacillin 2V Exerts Its Bactericidal Activity via Binding to Lipid II and Permeabilizing Cellular Membranes” (Frontiers in Microbiology, 2021).

Data set [1] has as its system S. aureus ATCC15975 (MRSA). Briefly: Spot-on-lawn assay with Lipid II. The note with it: brevibacillins 0.68 μg, nisin and daptomycin 1.36 μg; Lipid II 300 μM, 4 μl, at edge of halo; MHA, 37°C overnight. The class given is cell-based, Staphylococcus aureus. How it is done:
An overnight cultured S. aureus ATCC15975 (MRSA) was added to 0.6% MHA (w/v, temperature 42°C) at a final concentration of 0.1% (v/v), and then, the mixture was poured to the plates 10 ml for each. The binding of peptide and Lipid II ([Hasper et al., 2006]) was further evaluated by spotting of purified Lipid II (300 μm, 4 μl) to the edge of inhibition halo of antibiotics (brevibacillins, 0.68 μg; nisin and daptomycin, 1.36 μg). Briefly, antibiotics were loaded to the agar plate. After the antibiotic solution drops had dried, purified Lipid II was spotted to the edge (identified by a pre-experiment) of inhibition halo of antibiotics ([Wang et al., 2020]). After the Lipid II solution drops had dried, the plates were transferred to a 37°C incubator for overnight incubation.

The conditions of data set [2]: ref Varney et al., 2013; Bakhtiary et al., 2017; cited from earlier work. On the procedure:
To investigate the role of Lipid II-binding ability of brevibacillins in their membrane disruption capacity, CF leakage assays were performed using LUVs composed of DOPC with or without Lipid II and containing CF at self-quenching concentrations. LUVs-based CF leakage assay is widely used in the studies of the antibiotic mode of action ([Hasper et al., 2004]; [Smith et al., 2008]; [Slootweg et al., 2015]; [Bakhtiary et al., 2017]). Disruption of the vesicle membrane by certain compounds releases CF from the LUVs into the extra-vesicular milieu resulting in increased fluorescence signal (Figure ...

The nature of data set [3]: Pyrene-labeled Lipid II fluorescence quenching assay. The class given is binding. The conditions noted are these: 50 μM DOPC LUVs with 0.5 mol % pyrene-labeled Lipid II, 20°C, ex 350 nm. On the procedure:
The effects of antibiotics on pyrene-labeled Lipid II were measured using 50 μm DOPC-based large unilamellar vesicles (LUVs) containing 0.5 mol % pyrene-labeled Lipid II ([Breukink et al., 2003]). Briefly, the LUVs were added to a quartz cuvette and titrated with nisin, brevibacillin, or brevibacillin 2V with stirring at 20°C. The fluorescence spectra were recorded between 360 and 600 nm (λex350 nm) using a Cary Eclipse Fluorescence Spectrophotometer (Agilent, United States).

The subject of data set [4] is S. aureus ATCC15975 (MRSA). The data set can be described thus: Time-killing assay. The class given is cell-based, Staphylococcus aureus. The conditions noted are these: MHB, 37°C; for time to complete killing of all cells: 10 × MIC (nisin 40 μg/ml; brevibacillins 20 μg/ml), ≈ 5 × 10^6 cells per ml, 220 rpm, triplicate. How it is done:
This assay was performed according to a previously described procedure ([Ling et al., 2015]; [Zhao et al., 2020b]). An overnight culture of cells [S. aureus ATCC15975 (MRSA)] was diluted 50-fold in MHB and incubated at 37°C with aeration at 220 rpm. Bacteria were grown to an OD600 of 0.5, and then, the concentration of cells was adjusted to ≈ 5 × 10^6 cells per ml. Bacteria were then challenged with nisin (40 μg/ml), brevibacillin (20 μg/ml), brevibacillin V (20 μg/ml), brevibacillin I (20 μg/ml), or brevibacillin 2V (20 μg/ml) in culture tubes at 37°C and 220 rpm (peptides at 10 × MIC, a desirable concentration at the site of infection). Bacteria not treated with peptides were used as negative controls. At desired time points, 200 μl aliquots were taken, centrifuged at 8,000 g for 2 min, and resuspended in 200 μl of MHB. 10-fold serially diluted samples were plated on MHA plates. After incubated at 37°C overnight, colonies were counted and c.f.u. per ml was calculated. Each experiment was performed in triplicate.

The test system of data set [5] is S. aureus ATCC15975 (MRSA). Briefly: Fluorescence microscopy, LIVE/DEAD BacLight (SYTO 9/propidium iodide). The conditions noted are these: 2 × MIC (brevibacillins 4 μg/ml, nisin 8 μg/ml), 15 min, room temperature. The class given is cell-based, Staphylococcus aureus. How it is done: (§1) Staphylococcus aureus ATCC15975 (MRSA) was grown to an OD600 of 0.8. The culture was pelleted at 5,000 × g for 5 min and washed three times in 10 mm HEPES with 10 mm glucose (pH 7.2). After normalization of the cell density to an OD600 of 0.2 in 10 mm HEPES with 10 mm glucose (pH 7.2), a 2-fold MIC concentration of brevibacillins (4 μg/ml) or nisin (8 μg/ml) was added. At the same time, SYTO® 9 and propidium iodide (LIVE/DEAD Baclight Bacterial Viability Kit, Invitrogen) were added to the above cell suspensions. After incubation at room temperature for 15 min, peptides were removed and washed three times with 10 mm HEPES with 10 mm glucose (pH 7.2). Then, the cell suspensions were loaded on 1.5% agarose pads and analyzed by DeltaVision Elite microscope (Applied Precision; [Zhao and Kuipers, 2021]).

For a further data set, the system named is S. aureus (MRSA). The data set can be described thus: Membrane permeability assay, concentration series (fluorescence microscopy). The class given is cell-based, Staphylococcus aureus. The conditions noted are these: 100 nM and 400 nM, 15 min; ratio of membrane permeabilized cells; three independent experiments; p < 0.05. On the procedure:
as §1
GraphPad Prism 7.0 was used to fit the data of time-killing assay, DiSC3(5) assay, fluorescence quenching assay, ITC assay, and CF Leakage assay in Figures 3–7. The fluorescence images (ratio of membrane permeabilized cells) were quantified by the software Adobe Photoshop 2021. The Kd values of brevibacillins to Lipid II were calculated using the Nano Analyze Software (Waters LLC). The statistical significance of the data was assessed using Duncan’s multiple range test with the software SPSS Statistics 26; values of p < 0.05 were considered to be statistically significant.
Figure 7 Brevibacillins disrupt membrane permeability without the need for Lipid II binding. (A), Cartoon schematic of the assay used to assess membrane permeability disruption of brevibacillins. (B), CF releases (%) vs. time graph showing the effects of adding brevibacillins to DOPC-LUVs with 0.1% Lipid II; peptide concentrations were 100 nm; a, when peptides were added; and b, when 20% Triton X-100 added. (C), CF releases (%) vs. time graph showing the effects of adding brevibacillins to LUVs of pure DOPC; peptide concentrations were 100 nm; a, when peptides were added; and b, when 20% Triton X-100 was added. (D), fluorescence microscopic images of S. aureus (MRSA) after have been treated by a series concentrations of brevibacillins and nisin for 15 min. (E), the ratio of membrane permeabilized cells that was quantified by Adobe Photoshop 2021; the data are representative of three independent experiments.
To investigate the in vivo membrane disruption capacity of brevibacillin and brevibacillin 2V, a membrane permeability assay was performed with a series of concentrations of antibiotics. Nisin was used as a control.

The conditions of data set [6]: membrane-embedded Lipid II; ref Islam et al., 2012; ‘t Hart et al., 2016; Bakhtiary et al., 2017; Chiorean et al., 2020; cited from earlier work. On the procedure: After confirmation of the fact that brevibacillins bind to Lipid II, an ITC assay was performed to determine the binding affinity of brevibacillins for Lipid II. For this, 2 mol % Lipid II was incorporated into DOPC-based LUVs. […] Nisin, teixobactin, nukacin ISK-1, and lacticin 3147 ...

Another data set concerns human red blood cells. The conditions noted are these: Figure 1, ref Zhao et al., 2021; cited from earlier work. The source says:
(§2) A vast number of bacterial non-ribosomally produced peptides (NRPs) have shown strong antimicrobial activity against pathogenic bacteria ([Cochrane et al., 2014]; [Cociancich et al., 2015]; [Hamamoto et al., 2015]; [Ling et al., 2015]; [Süssmuth and Mainz, 2017]). Lipo-tridecapeptides, a class of NRPs, show strong antimicrobial activity against Gram-positive pathogens, including antibiotic-resistant Staphylococcus aureus and Enterococcus spp. ([Barsby et al., 2001], [2006]; [Yang et al., 2016]; [Wu et al., 2019]; [Zhao et al., 2021]). However, many of these lipo-tridecapeptides have shown high ... || Figure 1 Structures of brevibacillins. The red color indicates the more hydrophobic amino acid residues of brevibacillin V, brevibacillin and brevibacillin I relative to brevibacillin 2V. MIC, the minimum inhibitory concentration against Staphylococcus aureus (MRSA). HC50, the 50% human blood cell hemolysis concentration. CC50, the 50% cell (HepG2) toxicity concentration.

The test system of another data set is HepG2. The conditions noted are these: Figure 1, ref Zhao et al., 2021; cited from earlier work.
Description: as §2

For data set [7] the following is noted: ref Zhao et al., 2021; cited from earlier work.
For data set [8], the system named is Staphylococcus aureus (MRSA). The note with it: Staphylococcus aureus (MRSA); Figure 1; ref Zhao et al., 2021; cited from earlier work. The source says:
Figure 1 Structures of brevibacillins. The red color indicates the more hydrophobic amino acid residues of brevibacillin V, brevibacillin and brevibacillin I relative to brevibacillin 2V. MIC, the minimum inhibitory concentration against Staphylococcus aureus (MRSA). HC50, the 50% human blood cell hemolysis concentration. CC50, the 50% cell (HepG2) toxicity concentration. […] LUVs-based CF leakage assay is widely used in the studies of the antibiotic mode of action ([Hasper et al., 2004]; [Smith et al., 2008]; [Slootweg et al., 2015]; [Bakhtiary et al., 2017]). Disruption of the vesicle membrane by certain compounds releases CF from the LUVs into the extra-vesicular milieu resulting in increased fluorescence signal (Figure ...

Data set [9] relates to S. aureus ATCC15975 (MRSA) membrane. The data set can be described thus: DiSC3(5) membrane potential assay. The class given is cell-based, Staphylococcus aureus. The conditions noted are these: 2 × MIC. On the procedure: Staphylococcus aureus ATCC15975 (MRSA) was grown to an OD600 of 0.8. The culture was pelleted at 5,000 × g for 5 min and washed three times in 10 mm HEPES with 10 mm glucose (pH 7.2). The cell density was normalized to an OD600 of 0.2, loaded with 2 μm DiSC3(5) dye, and incubated for 20 min in the dark for probe fluorescence to stabilize. After incubation, KCl was added to the cell suspension at a final concentration of 100 mm. Subsequently, the cell suspension was added to a 96-well microplate and incubation for 5 min; after that, antibiotics were added at a final concentration of 2 × MIC. Fluorescence was monitored for 25 min, with the antibiotics added after ~20 s. The excitation and emission wavelengths on the fluorescence spectrometer were adjusted to 622 nm and 670 nm, respectively. Representative examples from three technical replicates are shown.

Data set [10] in a line: 31P solid-state NMR of Lipid II in liposomes. The class given is binding. The note with it: DOPC vesicles with 2 mol % Lys-Lipid II, 20 mM HEPES, 100 mM NaCl, pH 8; 200 nmol antibiotic, 100 nmol Lipid II; 500 MHz, 10 kHz MAS, 270 K. On the procedure:
Multi-lamellar vesicles of DOPC doped with 2 mol % Lys-Lipid II in buffer (20 mm HEPES, 100 mm NaCl, and pH = 8) were collected by centrifugation (60,000 × g) and loaded into 3.2 mm ssNMR rotors. For 3.2 mm rotors, we used 200 nmol of antibiotic with 100 nmol of Lipid II. The 1D ^31P ssNMR experiments were performed at 500 MHz (^1H frequency) magnetic field using 10 kHz magic angle spinning (MAS) at 270 K sample temperature.

No end group written: not given here.

With daptomycin, in data set [1], the “antimicrobial activity upon addition of purified Lipid II” value was “kept its antimicrobial activity against S. aureus (MRSA)”.

Turning to HNP-1: Lipid II-targeting antimicrobial, in data set [2], the “membrane disruption in Lipid II containing and Lipid II lacking LUVs” value is “cause membrane disruption in both Lipid II containing LUVs and Lipid II lacking LUVs”.

As to “nisin: well-known Lipid II-targeting antibiotic, pore-forming, used as control (ITSISLCTPGCKTGALMGCNMKTATCHCSIHVSK; not fully specified (some residues, bridges); cysteine pairing not given here; UniProt P13068 24-57, looked up) [reference compound]”, in data set [3], the “excimer fluorescence (about 490 nm)” value was “appearance of a fluorescence peak around 490 nm, indicating the formation of excimers” and the pyrene monomer fluorescence entry is given as “clearly induced a decrease of pyrene monomer fluorescence”. Also, the “time to complete killing of all cells” value in data set [4] is at most 4 h. Besides, the “membrane integrity (SYTO 9 / propidium iodide staining)” value in data set [5] is “turned red, indicative of a compromised membrane”. Moreover, the “membrane permeabilization capacity, comparison” value in the data set on S. aureus (MRSA) is on record as “significantly (p < 0.05) higher membrane permeabilization capacity than the brevibacillins”. Further, the “antimicrobial activity upon addition of purified Lipid II” value in [1] is on record as “diminished”. The Kd in [6] was 14.6 nM.

Turning to lacticin 3147, the “membrane disruption in Lipid II containing and Lipid II lacking LUVs” value in data set [2] was “cause membrane disruption in both Lipid II containing LUVs and Lipid II lacking LUVs”. Also, in data set [6], the Kd is 920 nM.

With Brevibacillin V, in data set [4] (10 × MIC (brevibacillins 20 μg/ml; nisin 40 μg/ml)), the “killing kinetics / capacity, in words” value is recorded as “intermediate killing capacity”. Moreover, the “time to complete killing of all cells” value in [4] is reported as at most 2 h. Also, the “HC50, 50% human blood cell hemolysis concentration” value in the data set with human red blood cells was 73.1 ± 1.4 mg/L. The “CC50, 50% cell (HepG2) toxicity concentration” value with HepG2 was 9.89 ± 0.67 µg/mL. Moreover, the “rank order of calculated hydrophobicity” value in [7] is “brevibacillin I > brevibacillin > brevibacillin V > brevibacillin 2V”. Moreover, in data set [8], the MIC was 2 µg/mL. Also, the “speed of membrane permeabilization” value in data set [9] was “appeared to act faster than brevibacillin 2V and the well-known pore-forming antibiotic nisin”. The “rank order of membrane disruption capacity” value in data set [9] (correlates with calculated hydrophobicity) is “brevibacillin I > brevibacillin > brevibacillin V > brevibacillin 2V”.

In the case of vancomycin [reference compound], in [10], the “31P signals of Lipid II pyrophosphate moiety” value is recorded as “no changes observed for the Lipid II pyrophosphate signals”.

One may read the Kd as the constant that tells how readily two partners part at equilibrium. In general, MIC refers to the lowest concentration found to suppress growth.
